The values below come from patent US8853392B2, “Benzamide mGluR5 positive allosteric modulators and methods of making and using same” (Vanderbilt University, priority 2007, dated 2014).

Test [1] has as its system Novel Object Recognition (NOR). The test is described as follows: Novel Object Recognition (NOR). The format is in vivo. The settings on record: FIG. 11. The source says: (§1) mGluR5 potentiation has also been linked to improvement of cognition (Kinney, G. G.; O'Brien, Lemaire, W.; Burno, M.' Bickel, D. J.; Clements, M. K.; Wisnoski, D. D.; Lindsley, C. W.; Tiller, P. R.; Smith, S.; Jacobson, M. A.; Sur, C.; Duggan, M. E.; Pettibone, D. J.; Williams, Jr., D. W. ‘A novel selective allosteric modulator of metabotropic glutamate receptor subtype 5 (mGluR5) has an antipsychotic profile in rat behavioral models’ J. Pharmacol. Exp. Therapeut. 2005, 313(1), 199; Lindsley, C. W.; Wisnoski, D. D.; Leister, W. H.; O'Brien, J. A.; Lemiare, W.; Williams, Jr., D. L.; Burno, M.; Sur, C.; Kinney, G. G.; Pettibone, D. J.; iller, P. R.; Smith, S.; Duggan, M. E.; Hartman, G. D.; Conn, P. J.; Huff, J. R. ‘Discovery of positive allosteric modulators for the metabotropic glutamate receptor subtype from a series of N-(1,3-Diphenyl-1H-pyrazol-5-yl)benzamides that potentiate receptor function in vivo’ J. Med. Chem. 2004, 47, 5825; Epping-Jordan M. P., Nayak, S., Derouet, F., Dominguez, H., Bessis A. S., Le Poul E., Ludwig B. L. Mutel V., Poli S. M. and Rocher J. P. In Vivo Characterization of mGluR5 Positive Allosteric Modulators as Novel Treatments for Schizophrenia and Cognitive Dysfunction Neuropharmacology 2005, 49, 243.). […]

Test [2] relates to hippocampal long term potentiation (LTP). Nature of the test: hippocampal long term potentiation (LTP). The format is cell-based. The settings on record: after applying a stimulus to the synapse, FIG. 17.
Text: as §1

For test [3], the system named is prepulse inhibition (PPI). The test is described as follows: reversal of amphetamine-induced prepulse inhibition (PPI) of startle. The test is classed as in vivo, rats. The settings on record: FIG. 15, 16; four prepulse intensities above background. The text has this:
Schizophrenic patients show decreased measures of sensorimotor gating, such as prepulse inhibition (PPI) of startle, and preclinical models of PPI in rats are routinely used to predict antipsychotic efficacy. In fact, PPI can be measured in humans and rats employing identical stimulus parameters yielding similar responses (Braff, D. L.; Geyer, M. A.; Swerdlow, N. R. ‘Human studies of prepulse inhibition of startle: normal subjects, patient groups, and pharmacological studies.’ Psychopharmacology 2001, 156(2-3), 234-258; Braff, D. L.; Geyer, M. A. ‘Sensorimotor gating and schizophrenia. Human and animal model studies.’ Archives of general psychiatry 1990, 47(2), 181-8; Braff, D. L.; Geyer, M. A.; Swerdlow, N. R. ‘Human studies of prepulse inhibition of startle: normal subjects, patient groups, and pharmacological studies.’ Psychopharmacology 2001, 156(2-3), 234-258; Weiss, I. C.; Feldon, J. ‘Environmental animal models for sensor motor gating deficiencies in schizophrenia: a review.’ Psychopharmacology 2001, 156(2-3), 305-326; Thomsen, M.; Woertwein, G.; Fink-Jensen, A.; Woldbye, D. P. D.; Wess, J.; Caine, S. B. ‘Decreased prepulse inhibition and increased sensitivity to muscarinic, but not dopaminergic drugs in M5 muscarinic acetylcholine receptor knockout mice.’ Psychopharmacology 2007, 192(1), 97-110.). […]

In test [4] the test system is amphetamine-induced hyperlocomotion. The test is described as follows: reversal of amphetamine-induced hyperlocomotion. The format is in vivo, male Sprague-Dawley rats. To be noted: rats, i.p., FIG. 8-10, 13, 14. How it is done:
For example, compounds of the present invention reverse amphetamine-induced hyperlocomotion in male Sprague-Dawley rats at doses ranging from 1 to 100 mg/kg i.p. Data for three example compounds follow:
Locomotor activity can be assessed as mean distance traveled (cm) in standard 16×16 photocell testing chambers measuring 43.2 cm (L)×43.2 cm (W)×30.5 cm (H) (Med Associates, St. Albans, Vt.). Animals can be habituated to individual activity chambers for at least 60 min prior to drug administration. Following administration of appropriate drugs or vehicle, activity can be recorded for a 3 hr time period. Data can be expressed as the mean (±SEM) distance traveled recorded in 10 min intervals over the test period. The data can be analyzed using repeated measures analysis of variance (ANOVA) followed by post-hoc testing using Tukey's HSD test, when appropriate. A difference can be considered significant when p≦0.05.

The next test deals with T1, rat mGluR5 (Rattus norvegicus, UniProt P31424).
T1 construct: expressed in transfected cells; host or cells: human embryonic kidney (HEK) cells
The test is described as follows: potentiation of mGluR5 response to glutamate, Ca2+ fluorescence (FDSS) in HEK cells transfected with rat mGluR5. The test is classed as cell-based. Put shortly:
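HEK cells expressing rat mGluR5, loaded with 2 μM fluo-4 AM; buffer HBSS, 20 mM HEPES, 2.5 mM probenecid, pH 7.4, 0.1% DMSO final. Compound added 5 min before glutamate, typically at EC20, with Ca2+ fluorescence read over 1 min and normalized to maximal agonist response. Potentiator EC50 from curve fitting; agonist curve shifts measured at fixed compound concentrations.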

The mark [5] stands for this setting: Table 1, EC50 for potentiating the mGluR5 receptor; unit inferred; read-out: EC50.
Setting [6] is: in vitro potency; read-out: In vitro.

pEC50: −log10 of the molar value. Where “and” joins values, the source holds several entries; their conditions need not be identical. Equal entries are not always repeated. Entries after “also recorded” stand apart in the source; their conditions may differ. Where two headings read alike, the source gives them in different places.

T1 sequence (P31424 21-1203): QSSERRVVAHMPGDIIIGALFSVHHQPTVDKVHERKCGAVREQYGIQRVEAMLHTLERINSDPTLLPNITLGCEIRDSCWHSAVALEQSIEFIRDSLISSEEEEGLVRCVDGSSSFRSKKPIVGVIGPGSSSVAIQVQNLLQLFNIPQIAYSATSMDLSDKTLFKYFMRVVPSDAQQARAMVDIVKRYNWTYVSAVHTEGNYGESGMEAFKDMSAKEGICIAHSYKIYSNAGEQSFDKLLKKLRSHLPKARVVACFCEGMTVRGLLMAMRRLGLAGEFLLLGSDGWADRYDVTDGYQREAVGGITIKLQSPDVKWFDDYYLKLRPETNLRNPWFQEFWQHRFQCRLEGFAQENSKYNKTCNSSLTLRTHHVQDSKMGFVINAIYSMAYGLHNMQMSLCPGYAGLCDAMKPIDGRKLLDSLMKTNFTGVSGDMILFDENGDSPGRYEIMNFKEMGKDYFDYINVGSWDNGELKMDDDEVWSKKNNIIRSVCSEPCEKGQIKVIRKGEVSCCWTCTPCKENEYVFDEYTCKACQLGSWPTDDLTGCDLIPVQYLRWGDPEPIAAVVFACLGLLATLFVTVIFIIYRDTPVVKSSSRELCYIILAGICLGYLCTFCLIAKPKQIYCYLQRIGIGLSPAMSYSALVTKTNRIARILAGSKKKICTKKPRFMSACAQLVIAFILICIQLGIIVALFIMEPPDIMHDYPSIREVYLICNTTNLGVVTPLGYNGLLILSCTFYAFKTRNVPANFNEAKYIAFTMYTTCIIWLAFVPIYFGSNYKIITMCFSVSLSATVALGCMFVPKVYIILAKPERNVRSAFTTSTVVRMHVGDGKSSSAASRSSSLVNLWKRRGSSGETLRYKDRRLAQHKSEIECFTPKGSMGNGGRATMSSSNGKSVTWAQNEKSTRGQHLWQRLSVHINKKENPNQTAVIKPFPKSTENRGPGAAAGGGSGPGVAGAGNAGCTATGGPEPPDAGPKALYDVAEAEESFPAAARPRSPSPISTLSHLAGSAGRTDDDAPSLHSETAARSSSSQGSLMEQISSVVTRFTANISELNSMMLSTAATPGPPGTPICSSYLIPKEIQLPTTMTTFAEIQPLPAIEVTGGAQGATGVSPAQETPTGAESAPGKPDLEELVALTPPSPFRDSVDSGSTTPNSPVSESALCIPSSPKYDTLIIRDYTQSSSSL

As to `O=C(c1ccc(F)cc1)N1CCC[C@H](c2nc(-c3ccc(F)cc3)no2)C1` [ADX47273], the “improvement in Novel Object Recognition (NOR)” value in test [1] is “robust and significant improvement in NOR; also recorded: cognitive improvement”. For the same molecule, the “increase in strength of synaptic connections (hippocampal LTP)” value in test [2] is reported as “induced a robust increase in synaptic connections”. The “reversal of amphetamine-induced prepulse inhibition (PPI)” value in test [3] is on record as “affords similar results; also recorded: reversal of amphetamine-induced prepulse inhibition (PPI)”. Besides, in test [4], the “reversal of amphetamine-induced hyperlocomotion” value is on record as “afforded similar results; also recorded: reversal of amphetamine-induced hyperlocomotion”.
Take `O=C(c1ccc(C#Cc2ccccc2)cc1)N1CCC(O)CC1` [Compound VU13, (4-hydroxypiperidin-1-yl)(4-(phenylethynyl)phenyl)methanone]: on rat mGluR5 (HEK293; read-out: % Glu Max), the Emax was 50%. The pEC50 on rat mGluR5 (setting [5]) was 7.84; at rat mGluR5 (setting [6]) it was 7.87. The “reversal of amphetamine-induced hyperlocomotion” value in test [4] was “efficacy in reversing amphetamine-induced hyperlocomotion; also recorded: in vivo efficacy”.
Turning to `O=C(c1ccc(C#Cc2ccccc2)cc1)N1CCC(CO)CC1` [Compound VU14/C104B2, (4-(hydroxymethyl)piperidin-1-yl)(4-(phenylethynyl)phenyl)methanone], the Emax on rat mGluR5 (HEK293; read-out: % Glu Max) amounted to 41%. Also, the pEC50 was 7.49 and 7.36 at rat mGluR5 (setting [5]); 7.53 on rat mGluR5 (setting [6]). Besides, in test [4], the “reversal of amphetamine-induced hyperlocomotion” value is recorded as “efficacy in reversing amphetamine-induced hyperlocomotion; also recorded: in vivo efficacy”.
For the molecule `CCCC1(O)CCN(C(=O)c2ccc(C#Cc3ccccc3)cc2)CC1` [Compound VU60/C109B2, (4-hydroxy-4-propylpiperidin-1-yl)(4-(phenylethynyl)phenyl)methanone], the Emax on rat mGluR5 (HEK293, read-out: % Glu Max) came to 90%; at rat mGluR5 (HEK293, read-out: % Glu Max, maximum extent of potentiation, normalized to maximal response to glutamate; SAR tables), 90.1%. For the same molecule, the pEC50 was 5.79 on rat mGluR5 (setting [5]) and 5.90 at rat mGluR5 (setting [6]). Further, the “reversal of amphetamine-induced hyperlocomotion” value was “efficacy in reversing amphetamine-induced hyperlocomotion” in test [4] and “in vivo efficacy” in test [4] (listed as VU60).
As to `O=C(Nc1cc(-c2ccccc2)nn1-c1ccccc1)c1ccc([N+](=O)[O-])cc1` [VU29], the “increase in strength of synaptic connections (hippocampal LTP)” value in test [2] is “induced a robust increase in synaptic connections”.
For the molecule `O=C(c1ccc(C#Cc2ccccc2)cc1)N1CCC(O)(c2cccc(F)c2)CC1` [drawing 160, (4-(3-fluorophenyl)-4-hydroxypiperidin-1-yl)(4-(phenylethynyl)phenyl)methanone], the pEC50 at rat mGluR5 (setting [5]) is 5.75.
Same read-out and setting: then `COc1ccc(C2(O)CCN(C(=O)c3ccc(C#Cc4ccccc4)cc3)CC2)cc1` [drawing 173, (4-hydroxy-4-(4-methoxyphenyl)piperidin-1-yl)(4-(phenylethynyl)phenyl)methanone], with 5.58; and `O=C(c1ccc(C#Cc2ccccc2)cc1)N1CCOCC1` [morpholino(4-(phenylethynyl)phenyl)methanone], with 8.28.
For “(4-hydroxypiperidin-1-yl)(4-(phenylethynyl)phenyl)methanone [Compound VU13]”, at rat mGluR5 (setting [5]), the pEC50 is 7.55. In addition, the entries for the “reversal of amphetamine-induced hyperlocomotion” value in test [4] (listed as VU000013) and in test [4] (listed as VU00013) were “affords similar results” and “reversal of amphetamine-induced hyperlocomotion”, respectively.
